SMILES strings stand for the structures.

One data set concerns the target T1, PfDHODH (Plasmodium falciparum, UniProt Q08210).
T1 construct: encoding amino acid residues 158 to 569 fused to a His6-SUMO tag in its N-terminus; His6-SUMO (N, cleaved yes); made in house; host or cells: E. coli BL21 Star (DE3), pETSUMO/PfDHODH
The experiment in a line: PfDHODH inhibition assay (DCIP end-point, 384-well). The following applies: recombinant tag-free PfDHODH, 20 min, serial dilutions 0.0007-22.7 µM; read-out: IC50 DHODH Pf. In kind it is biochemical. The protocol: The screening of 40,400 compounds was conducted in 384-well plates by adapting the end-point assay reported before. First, 1 µL of 200 µM compound was transferred into 384-well plates using a Benchtop Multi-Pipetter EDR-384SR (Biotech Co., Ltd., Tokyo, Japan). […] Next, 38 µL of assay mix (100 mM HEPES-NaOH pH 7.5, 5% (v/v) glycerol, 150 mM NaCl, 0.05% (v/v) Triton X-100, 15 µM decylubiquinone (dUQ, Sigma), 120 µM 2,6-dichlorophenolindophenol (DCIP, Sigma), and 20 nM PfDHODH) were dispensed into all wells and mixed at 600 rpm for 1 min by a MixMate®® (Eppendorf). The reaction was started by the addition of 5 µL of 1.8 mM L-DHO (Sigma) as the substrate and mixed as described above for 20 s. The absorbance at 600 nm was recorded using a SpectraMax®® Paradigm®® Multi-Mode Microplate Reader (Molecular Devices) before (t0) and after 20 min (t20) incubation at room temperature. The readings at t0 were subtracted from t20, and PfDHODH inhibition was calculated as the inhibition relative to the negative and positive controls in a single-point assay. Hits were defined as compounds inhibiting more than 50% of PfDHODH activity at 4.5 µM. The quality of the screening system was evaluated by calculating statistical parameters: Z′-factor, S/N, S/B, SW, and CV, as previously reported. The IC50 values of the hit compounds were determined using the same assay system containing serial dilutions of each compound in triplicates (22.7, 6.8, 2.27, 0.68, 0.227, 0.068, 0.023, 0.007, 0.002, 0.0007 µM) using GraphPad Prism 8.0 software (GraphPad Software Inc., San Diego, CA, USA).

The next data set concerns the target T2, HsDHODH (Homo sapiens, UniProt Q02127).
T2 construct: made in house
The experiment in a line: HsDHODH counter-assay. The data set is classed as biochemical. The following applies: purified recombinant HsDHODH, tested at 4.5 µM; read-out: IC50 DHODH Hs. The protocol:
Selected hit compounds from PfDHODH screening were tested for potential inhibition against HsDHODH at 4.5 µM. The HsDHODH used in this study was purified as previously reported. The HsDHODH assay was performed similarly to that for PfDHODH, but in an assay mix consisting of 50 mM Tris-HCl pH 8.0, 0.1% (v/v) Triton X-100, 2 mM potassium cyanide (KCN, Wako), 60 µM dUQ, and 120 µM DCIP, with the reaction started by the addition of 200 µM L-DHO (final concentration) in triplicate. For this assay, DMSO was used as a negative control and 10 µM of lapachol was used as a positive control (100% inhibition). The relative inhibition was calculated as described above.

Data set [1] addresses mammalian mitochondrial complexes I–III (Bos taurus, UniProt P00157+P03887+P17694+P42026). The experiment in a line: NADH-cytochrome c reductase (complexes I–III) activity assay. The data set is classed as biochemical. The following applies: bovine heart mitochondria, range tested 0.0007 to 22.7 µM; read-out: IC50 Mammalian Mitochondrial CI–III. The protocol: (§1) Bovine heart mitochondria were prepared as previously described. The NADH-cytochrome c reductase (complexes I–III) and succinate-cytochrome c reductase (complexes II–III) activities were assayed in 384-well plates following an established protocol with small modifications. Complex I–III activity was assayed in a reaction mix containing 50 mM phosphate buffer pH 7.4, 2 mM KCN, 200 µM cytochrome c (cytochrome c from horse heart, Nacalai tesque), and 15 µg/mL mitochondria. Plates containing 1 µL serial dilutions of PfDHODH inhibitors were prepared and mixed with 38 µL of the reaction mix, as described above. The reaction was started by the addition of 5 µL of 2.6 mM NADH, and the assay was performed as described for PfDHODH, but at 550 nm and with 15 min of incubation. Complex II–III activity was assayed similarly to complex I–III activity but with 100 µM cytochrome c and 25 µg/mL mitochondria, and the reaction was started by 10 mM succinate. For both assays, DMSO and 5 µM ascochlorin were used as negative and positive controls, respectively. Assays were performed in triplicate.

The target of data set [2] is mammalian mitochondrial complexes II–III (Bos taurus, UniProt P00157+P35720+Q3T189+Q95123). The experiment in a line: succinate-cytochrome c reductase (complexes II–III) activity assay. In kind it is biochemical. Conditions: bovine heart mitochondria, range tested 0.0007 to 22.7 µM; read-out: IC50 Mammalian Mitochondrial CII–III. The protocol: as §1
Another data set has as its system P. falciparum 3D7. The experiment in a line: In vitro antimalarial assay (PfLDH/diaphorase). In kind it is cell-based. The following applies: Plasmodium falciparum, growth inhibition, 72 h, 0.0003 to 10 µM, read-out: EC50 Pf3D7. The protocol: This assay was conducted using human red blood cells (RBC) following the guidelines of the ethics committee of Nagasaki University (permission no. 19). Human RBC was obtained from the Japanese Red Cross Society. The P. falciparum 3D7 strain was cultured in 2% hematocrit type O human RBC in RPMI-1640 medium (Gibco) supplemented with 23.8 mM sodium bicarbonate (Wako), 50 mg/L hypoxanthine (Wako), 25 mg/L gentamycin (Sigma), and 0.5% (w/v) AlbuMAX®® II (Gibco) under a 5% O2, 5% CO2, and 90% N2 atmosphere at 37 °C. Parasites were synchronized with 5% (w/v) D-sorbitol (Wako).
Synchronized ring-stage parasites at 0.3% parasitemia and 2% hematocrit were cultured in a 384-well plate at 25 µL with test compounds at a final concentration in the range of 0.0003 to 10 µM with a fixed DMSO concentration of 0.4% (v/v). Parasite growth was monitored by the diaphorase-coupled P. falciparum lactate dehydrogenase (PfLDH) assay, as previously described. After 72 h, 70 µL of the assay solution (150 mM lithium L-lactate (Wako), 0.05 mg/mL 3-acetylpyridine adenine dinucleotide (Oriental Yeast Co., Ltd., Tokyo, Japan), 0.2 mg/mL nitro blue tetrazolium (Wako), 1 unit/mL diaphorase, and 100 mM Tris-HCl pH 8.0) were mixed with the parasite culture and incubated at room temperature for 40 min, and the generated nitro blue formazan was measured at 650 nm using a SpectraMax®® Paradigm®® Multi-Mode Microplate Reader. […] The EC50 was calculated using GraphPad Prism 8.0 software from the mean of quadruplets values.

The nature of data set [3]: Cytotoxicity assay, HDF (Cell Counting Kit-8). The data set is classed as cell-based. Conditions: human dermal fibroblast (HDF) cells, normal human dermal fibroblasts. The protocol: (§2) Human dermal fibroblast cells (HDF, Zenbio, Inc., Durham, NC, USA) were cultured in Dulbecco’s Modified Eagle Medium/Nutrient Mixture F-12 medium (DMEM/F12, Gibco), human pancreatic carcinoma cells (PANC-1, DS Pharma Biomedical, Co., Ltd.) were cultured in DMEM (Gibco), and human colorectal adenocarcinoma cells (DLD-1, Taiho Pharmaceutical Company) were cultured in RPMI-1640 medium (FUJIFILM Wako Pure Chemicals). The culture mediums were supplemented with 10% (v/v) heat-inactivated fetal bovine serum (Gibco) and the cells were maintained at 37 °C under 5% CO2.
(§3) HDF, PANC-1, and DLD-1 were seeded at 2.5 × 10^4 cells/well on a 96-well plate and incubated at 37 °C under 5% CO2 overnight. The cells were then washed with PBS and the medium was replaced with 99 µL of fresh media. Then, 1 µL of the compounds or DMSO was added to the respective wells. As controls, wells containing 1% (v/v) DMSO in column 1 and wells containing only the culture medium in column 12 were used as the negative and positive controls, respectively. After 48 h of incubation, the cells were washed with PBS, and 99 µL of fresh media was replaced, followed by the addition of 10 µL of Cell Counting Kit-8 (Dojindo) to each well. After 3 h of incubation, the absorbance was measured at 450 nm using a SpectraMax®® Paradigm®® Multi-Mode microplate Reader. The calculation of cell viability in the test well was based on the absorbance of control wells according to the manufacturer’s protocol. The mean of quadruplet values was used to calculate the CC50 using GraphPad Prism 8.0 software.

Data set [4] is described as follows: Cytotoxicity assay, PANC-1 (Cell Counting Kit-8). The data set is classed as cell-based. The following applies: PANC-1 human pancreatic carcinoma cells. The protocol: as §2, §3
Data set [5] in a line: Cytotoxicity assay, DLD-1 (Cell Counting Kit-8). The following applies: DLD-1 human colorectal adenocarcinoma cells. In kind it is cell-based. The protocol:
as §2, §3

T2 sequence (Q02127 whole entry): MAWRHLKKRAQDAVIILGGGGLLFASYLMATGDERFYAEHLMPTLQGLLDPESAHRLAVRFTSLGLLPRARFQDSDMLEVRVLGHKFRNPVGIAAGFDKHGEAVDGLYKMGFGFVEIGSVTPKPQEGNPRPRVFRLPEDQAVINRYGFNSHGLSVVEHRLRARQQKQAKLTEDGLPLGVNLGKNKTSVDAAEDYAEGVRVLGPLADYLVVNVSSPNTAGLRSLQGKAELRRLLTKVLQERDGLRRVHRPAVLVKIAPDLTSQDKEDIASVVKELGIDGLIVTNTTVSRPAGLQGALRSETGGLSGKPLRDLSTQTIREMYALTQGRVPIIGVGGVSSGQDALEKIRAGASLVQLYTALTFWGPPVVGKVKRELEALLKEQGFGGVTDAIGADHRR
T1 sequence (Q08210 158-569): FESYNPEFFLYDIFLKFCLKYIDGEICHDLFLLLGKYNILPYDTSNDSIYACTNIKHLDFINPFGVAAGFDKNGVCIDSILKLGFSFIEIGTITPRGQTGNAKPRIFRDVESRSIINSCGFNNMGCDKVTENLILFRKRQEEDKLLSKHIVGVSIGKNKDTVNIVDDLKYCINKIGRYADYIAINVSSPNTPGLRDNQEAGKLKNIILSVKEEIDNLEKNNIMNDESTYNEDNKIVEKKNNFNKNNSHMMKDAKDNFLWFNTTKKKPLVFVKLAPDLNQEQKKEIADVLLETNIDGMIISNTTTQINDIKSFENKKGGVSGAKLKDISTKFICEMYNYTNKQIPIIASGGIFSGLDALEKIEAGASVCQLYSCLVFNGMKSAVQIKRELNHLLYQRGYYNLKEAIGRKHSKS

With `N=C1Sc2cc(-c3cccc4ccccc34)ccc2C2=NCCCN12` [Compound 2], the half-maximal inhibitory concentration (IC50) at PfDHODH was 0.85 ± 0.05 µM; at HsDHODH, > 4.5 µM; in data set [1], 13.9 ± 2.14 µM; in data set [2], > 22.7 µM. Further, the concentration giving a half-maximal response (EC50) with P. falciparum 3D7 was > 10 µM. Also, the EC50 at 48 h in data set [3], in data set [4] and in data set [5] was > 10 µM each time.

Regarding `CC(=O)Nc1ccc2c(c1)SN1CCCN=C21` [Compound 28], the IC50 was 18.5 ± 0.4 µM on PfDHODH, > 4.5 µM on HsDHODH, > 22.7 µM in data set [1] and > 22.7 µM in data set [2]. In addition, in the data set with P. falciparum 3D7, the EC50 is > 10 µM. Moreover, the EC50 at 48 h in data set [3], in data set [4] and in data set [5] was > 10 µM each time.

(Values after PMC8268581, “Identification of 3,4-Dihydro-2H,6H-pyrimido[1,2-c][1,3]benzothiazin-6-imine Derivatives as Novel Selective Inhibitors of Plasmodium falciparum Dihydroorotate Dehydrogenase” (International Journal of Molecular Sciences, 2021).)
